In patent US20150329825A1, “COMPOSITIONS AND METHODS EMPLOYING STEM CELL-DERIVED CARDIOMYOCYTES” (THE REGENTS OF THE UNIVERSITY OF MICHIGAN, priority 2014, published 2015):

Columns and labels:
Format in all cases: cell-based, human
[1] = system: hiPSC-CM monolayers; assay: 96 well optical mapping of intracellular calcium flux in hiPSC-CM monolayers under IKr blockade; conditions: 100 nmol L^-1 E4031
Description: Briefly, monolayers were loaded with the intracellular Ca^2+ indicator, rhod-2AM (10 μmol L-1, Life Technologies). After a 30 minute incubation time, the cells were washed in Hanks balanced salt solution (HBSS, Life Technologies) for an additional 30 minutes before optical mapping recordings. […] Movies were filtered in both the time and space domain and conduction velocity (CV) was measured as described previously (Hou L, et al., Circulation Research. 2010;107:1503-1511, herein incorporated by reference in its entirety).
Small glass coverslips to fit into a 96 well format dish are not readily available so here plastic was used as the rigid comparator for PDMS.

[2] = system: hiPSC-CMs (iCell); assay: Western blotting for mature myofilament proteins (cTnI, β-MyHC) in hiPSC-CMs cultured with FAK inhibitor
[3] = system: hiPSC-CM monolayers; assay: Hypertrophic growth and monolayer formation of hiPSC-CMs on glass or PDMS coverslips with FAK inhibitor
Description: In a second set of experiments hiPSC-CM monolayers were fixed for immunocytochemistry following optical mapping recordings of impulse propagation as recently described (Lee P, et al., Circulation Research. 2012;110:1556-1563, herein incorporated by reference in its entirety). Briefly, cell monolayers were washed with PBS and then fixed with 4% paraformaldehyde for 10 minutes and rinsed twice before blocking with 10% normal donkey serum in PBS plus 0.1% Triton X-100 (Sigma) for 1.5 hours at room temperature. Primary antibodies were used to detect α-actinin (1:500, Sigma) in the cardiac sarcomeres and Cx43 (1:100, Millipore) and N-cadherin (1:200, BD Bioscience) at the intercellular junctions. The primary antibodies were added to 5% donkey serum in PBS plus 0.1% Triton X-100 and incubated overnight at 4° C. Subsequently, cells were washed three times in PBS plus 0.1% TRITON X-100. […] Protein localization was examined by laser scanning confocal microscopy with sequential laser firing for multiple fluorophores (Nikon AIR, Melville, N.Y.). iPSC-CM cross sectional area was calculated in NIS Elements software using N-cadherin staining of the cell membranes.
Integrins are transmembrane heterodimeric receptors essential for providing cell-extracellular matrix adhesion, cellular structural organization and transduction of mechanical signals from the extracellular matrix into biochemical signals in cardiomyocytes (Ross R S, et al., Circulation Research. 2001;88:1112-1119; Israeli-Rosenberg S, et al., The FASEB Journal. 2015;29:374-384; Israeli-Rosenberg S, et al., Circulation Research. 2014;114:572-586). β1 integrins are abundant in the adult heart and participate in the hypertophic response in rodent ventricular myoyctes (Ross et al., Circulation Research. […] Finally, the role of FAK activation in the hypertrophic response of hiPSC-CMs to the soft cell culture environment on PDMS was determined (FIG. 8D and FIG. 14).

[4] = 10 μmol L^-1 FAK inhibitor-14, cultured on PDMS

| SMILES | CaTD80 post E4031 ([1]; PDMS bottom dishes, n=5, pre 579.8±13.9 ms) [ms] | effect on beat frequency and CaTD80 (in words) ([1]; PDMS bottom well) | reduction of spontaneous beating frequency ([1]; monolayers on matrigel coated PDMS, n=5) [%] | reduction of spontaneous beating frequency ([1]; monolayers on rigid plastic (matrigel coated), n=8) [%] | CaTD80 post E4031 ([1]; plastic bottom dishes, n=8, pre 605.9±24.3 ms) [ms] | effect on spontaneous beating frequency and CaTD80 (in words) ([1]; rigid plastic bottom dishes (matrigel coated)) | cTnI expression [2, 4] | β-MyHC expression [2, 4] | expression of mature myofilament protein isoforms including cTnI and β-MyHC ([2]; FIG. 8C legend) | monolayer formation and hiPSC-CM expansion in culture ([3]; 100 μmol L^-1, both Glass and PDMS) | hypertrophic growth of hiPSC-CMs ([3]; PDMS coverslips) | effect on hiPSC-CMs grown on glass coverslips ([3]; glass coverslips, effect only at 100 μmol L^-1) |
| --- | --- | --- | --- | --- | --- | --- | --- | --- | --- | --- | --- | --- |
| Cc1cccc(CCN2CCC(C(=O)c3ccc(NS(C)(=O)=O)cc3)CC2)n1 [E4031] | 780.1 ± 74.1 | more modest effect | ~20 | ~50 | 1873.8 ± 278.9 | very significant impact | – | – | – | – | – | – |
| Nc1cc(N)c(N)cc1N [FAK inhibitor-14] | – | – | – | – | – | – | failed to express cTnI | expressed less β-MyHC | prevents expression | prevented monolayer formation and hiPSC-CM expansion in culture | prevented hypertrophic growth | only affected at very high dose |
